Molecular target: T1, hFASN enzyme (full length) (Homo sapiens, UniProt P49327)
T1 construct: 10 μL hFASN enzyme (full length, 300 ng, purified in house); made in house
Experiment: Fatty Acid Synthase (FASN) inhibition scintillation proximity assay
Assay type: biochemical
Settings: for inhibition at 10 µM: read-out: Human FASN % inhibition @ 10 μM, 10 μM test compound; for IC50: read-out: Human FASN pIC50 (converted)
How it was run: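 Full-length in-house purified enzyme (300 ng) was tested in 100 mM KH2PO4 pH 7.5, 1 mM DTT with ³H-acetyl-CoA and malonyl-CoA as substrates; compounds ranged 0.01–30 μM. Reactions were stopped with streptavidin imaging beads, read by LEADseeker at 610 nm, and fitted to a 4-parameter logistic curve.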

T1 sequence (P49327 whole entry): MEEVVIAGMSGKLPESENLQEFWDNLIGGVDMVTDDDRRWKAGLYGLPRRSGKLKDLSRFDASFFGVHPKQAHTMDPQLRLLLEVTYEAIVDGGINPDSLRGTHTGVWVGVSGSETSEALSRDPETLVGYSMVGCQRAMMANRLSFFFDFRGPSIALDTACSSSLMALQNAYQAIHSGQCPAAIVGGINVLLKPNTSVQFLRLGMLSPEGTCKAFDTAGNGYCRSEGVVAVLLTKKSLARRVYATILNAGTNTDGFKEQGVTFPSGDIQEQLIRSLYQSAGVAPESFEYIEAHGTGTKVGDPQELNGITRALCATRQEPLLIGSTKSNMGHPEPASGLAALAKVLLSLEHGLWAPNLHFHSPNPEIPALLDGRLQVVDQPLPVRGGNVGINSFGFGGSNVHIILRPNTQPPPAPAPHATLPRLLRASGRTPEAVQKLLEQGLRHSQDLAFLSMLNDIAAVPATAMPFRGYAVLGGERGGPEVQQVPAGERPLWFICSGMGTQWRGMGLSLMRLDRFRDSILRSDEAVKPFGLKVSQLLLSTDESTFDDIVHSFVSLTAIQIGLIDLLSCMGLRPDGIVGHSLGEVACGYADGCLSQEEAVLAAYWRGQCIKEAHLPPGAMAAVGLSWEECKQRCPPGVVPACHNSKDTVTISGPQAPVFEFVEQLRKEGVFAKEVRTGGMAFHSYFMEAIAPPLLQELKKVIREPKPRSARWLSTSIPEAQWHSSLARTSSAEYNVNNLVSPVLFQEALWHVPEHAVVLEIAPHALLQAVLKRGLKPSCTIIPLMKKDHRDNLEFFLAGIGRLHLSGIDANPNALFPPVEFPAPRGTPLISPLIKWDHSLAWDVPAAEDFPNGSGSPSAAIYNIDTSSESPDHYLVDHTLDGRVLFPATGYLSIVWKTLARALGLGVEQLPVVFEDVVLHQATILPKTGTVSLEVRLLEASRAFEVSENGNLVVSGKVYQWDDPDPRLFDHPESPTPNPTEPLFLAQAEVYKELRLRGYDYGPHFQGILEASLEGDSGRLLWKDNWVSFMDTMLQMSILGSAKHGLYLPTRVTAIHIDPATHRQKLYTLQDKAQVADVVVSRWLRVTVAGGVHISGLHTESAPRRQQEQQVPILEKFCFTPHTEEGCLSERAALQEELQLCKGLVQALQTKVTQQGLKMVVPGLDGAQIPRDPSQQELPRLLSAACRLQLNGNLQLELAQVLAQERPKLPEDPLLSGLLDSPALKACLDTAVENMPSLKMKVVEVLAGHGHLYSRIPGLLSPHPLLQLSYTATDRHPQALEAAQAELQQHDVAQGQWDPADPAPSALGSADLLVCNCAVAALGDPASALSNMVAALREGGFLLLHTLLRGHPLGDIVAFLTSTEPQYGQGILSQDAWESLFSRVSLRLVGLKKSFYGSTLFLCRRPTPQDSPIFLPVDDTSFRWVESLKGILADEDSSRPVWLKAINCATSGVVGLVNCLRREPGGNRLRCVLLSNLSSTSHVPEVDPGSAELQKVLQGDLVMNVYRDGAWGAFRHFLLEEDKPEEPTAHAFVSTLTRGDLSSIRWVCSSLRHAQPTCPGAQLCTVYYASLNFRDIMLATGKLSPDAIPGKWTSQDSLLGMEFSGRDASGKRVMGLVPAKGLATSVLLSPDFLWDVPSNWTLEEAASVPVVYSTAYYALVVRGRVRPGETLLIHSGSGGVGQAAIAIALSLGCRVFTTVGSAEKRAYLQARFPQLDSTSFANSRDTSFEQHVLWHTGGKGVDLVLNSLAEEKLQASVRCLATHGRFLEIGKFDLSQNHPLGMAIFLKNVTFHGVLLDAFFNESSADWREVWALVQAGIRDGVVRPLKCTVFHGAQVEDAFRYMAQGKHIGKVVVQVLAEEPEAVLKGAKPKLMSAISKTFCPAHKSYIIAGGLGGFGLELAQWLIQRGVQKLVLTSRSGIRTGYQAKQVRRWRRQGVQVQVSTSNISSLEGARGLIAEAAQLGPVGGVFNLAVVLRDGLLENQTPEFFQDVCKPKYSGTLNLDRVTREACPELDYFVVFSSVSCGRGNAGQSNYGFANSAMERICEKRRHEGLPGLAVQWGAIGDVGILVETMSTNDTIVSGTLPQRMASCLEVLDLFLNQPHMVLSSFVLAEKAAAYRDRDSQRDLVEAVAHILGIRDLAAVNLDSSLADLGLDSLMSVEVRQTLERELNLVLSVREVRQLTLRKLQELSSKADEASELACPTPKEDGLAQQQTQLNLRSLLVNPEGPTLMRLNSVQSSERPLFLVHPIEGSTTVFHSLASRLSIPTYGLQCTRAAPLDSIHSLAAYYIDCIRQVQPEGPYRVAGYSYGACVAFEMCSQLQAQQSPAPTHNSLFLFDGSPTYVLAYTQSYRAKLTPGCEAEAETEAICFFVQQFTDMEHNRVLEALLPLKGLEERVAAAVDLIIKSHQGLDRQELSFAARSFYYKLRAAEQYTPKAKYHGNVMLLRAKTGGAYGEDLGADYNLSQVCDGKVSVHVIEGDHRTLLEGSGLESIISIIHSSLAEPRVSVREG

SMILES | inhibition at 10 µM [%] | IC50 [µM]
O=C(C1CC1)N1CCC[C@@H](CN2C(=O)C3(CC3)N=C2c2ccc(-c3ccc(O)cc3)cc2)C1 [compound 925, (R)-6-((1-(cyclopropanecarbonyl)piperidin-3-yl)methyl)-5-(4′-hydroxy-[1,1′-biphenyl]-4-yl)-4,6-diazaspiro[2.4]hept-4-en-7-one] | 5 | > 10
Cn1ncc2cc(-c3ccc(C4=NC5(CCOCC5)C(=O)N4C[C@@H]4CCN(S(C)(=O)=O)C4)cc3)ccc21 [compound 926, (S)-2-(4-(1-methyl-1H-indazol-5-yl)phenyl)-3-((1-(methylsulfonyl)pyrrolidin-3-yl)methyl)-8-oxa-1,3-diazaspiro[4.5]dec-1-en-4-one] | -8 | > 10
COC(=O)N1CC(CN2C(=O)C3(CCOC3)N=C2c2ccc(-c3ccc(-c4cnn(C)c4)cc3)cc2)C1 (stereo not shown) [compound 927, methyl 3-((2-(4′-(1-methyl-1H-pyrazol-4-yl)-[1,1′-biphenyl]-4-yl)-4-oxo-7-oxa-1,3-diazaspiro[4.4]non-1-en-3-yl)methyl)azetidine-1-carboxylate] | -2 | > 10
COC(=O)N1CC(CN2C(=O)C3(CCOCC3)N=C2c2ccc(-c3ccc4occc4c3)cc2)C1 [compound 928] | 10 | > 10
COC(=O)N1CC2(C1)N=C(c1ccc(-c3ccc(-c4cnn(C)c4)cc3)cc1)N(C[C@@H]1CCN(C(=O)c3nccs3)C1)C2=O [compound 929, (R)-methyl 6-(4′-(1-methyl-1H-pyrazol-4-yl)-[1,1′-biphenyl]-4-yl)-8-oxo-7-((1-(thiazole-2-carbonyl)pyrrolidin-3-yl)methyl)-2,5,7-triazaspiro[3.4]oct-5-ene-2-carboxylate] | 6 | > 10
O=C(c1nccs1)N1CC(CN2C(=O)C3(CCOC3)N=C2c2ccc(-c3ccc4cccnc4c3)cc2)C1 (stereo not shown) [compound 930, 2-(4-(quinolin-7-yl)phenyl)-3-((1-(thiazole-2-carbonyl)azetidin-3-yl)methyl)-7-oxa-1,3-diazaspiro[4.4]non-1-en-4-one] | -14 | > 10
COC(=O)N1CC[C@@H](CN2C(=O)C3(CN(C(=O)OC)C3)N=C2c2ccc(-c3ccc4occc4c3)cc2)C1 [compound 931, (S)-methyl 6-(4-(benzofuran-5-yl)phenyl)-7-((1-(methoxycarbonyl)pyrrolidin-3-yl)methyl)-8-oxo-2,5,7-triazaspiro[3.4]oct-5-ene-2-carboxylate] | 31 | > 10
O=C(c1nccs1)N1CC(CN2C(=O)C3(CCOC3)N=C2c2ccc(-c3ccc4occc4c3)cc2)C1 (stereo not shown) [compound 932, 2-(4-(benzofuran-5-yl)phenyl)-3-((1-(thiazole-2-carbonyl)azetidin-3-yl)methyl)-7-oxa-1,3-diazaspiro[4.4]non-1-en-4-one] | 2 | > 10
Cn1ncc2cc(-c3ccc(C4=NC5(CCOC5)C(=O)N4C[C@@H]4CCN(S(C)(=O)=O)C4)cc3)ccc21 (stereo partly drawn) [compound 933, 2-(4-(1-methyl-1H-indazol-5-yl)phenyl)-3-(((S)-1-(methylsulfonyl)pyrrolidin-3-yl)methyl)-7-oxa-1,3-diazaspiro[4.4]non-1-en-4-one] | 5 | > 10
O=C(c1nccs1)N1CCC(CN2C(=O)C3(CCOC3)N=C2c2ccc(-c3ccc4occc4c3)cc2)C1 (stereo not shown) [compound 934, 2-(4-(benzofuran-5-yl)phenyl)-3-((1-(thiazole-2-carbonyl)pyrrolidin-3-yl)methyl)-7-oxa-1,3-diazaspiro[4.4]non-1-en-4-one] | 27 | > 10

More lines, now with the values ahead:

inhibition at 10 µM [%] | IC50 [µM] | SMILES
-2 | > 10 | Cn1ncc2cc(-c3ccc(C4=NC5(CCOCC5)C(=O)N4CC4CN(C(=O)C(F)(F)F)C4)cc3)ccc21 [compound 935, 2-(4-(1-methyl-1H-indazol-5-yl)phenyl)-3-((1-(2,2,2-trifluoroacetyl)azetidin-3-yl)methyl)-8-oxa-1,3-diazaspiro[4.5]dec-1-en-4-one]
7 | > 10 | COC(=O)N1CC(CN2C(=O)C3(CCOCC3)N=C2c2ccc(-c3ccc(-c4cnn(C)c4)cc3)cc2)C1 [compound 936, methyl 3-((2-(4′-(1-methyl-1H-pyrazol-4-yl)-[1,1′-biphenyl]-4-yl)-4-oxo-8-oxa-1,3-diazaspiro[4.5]dec-1-en-3-yl)methyl)azetidine-1-carboxylate]
5 | > 10 | COC(=O)N1CC(CN2C(=O)C3(CCOCC3)N=C2c2ccc(-c3ccc4c(cnn4C)c3)cc2)C1 [compound 941, methyl 3-((2-(4-(1-methyl-1H-indazol-5-yl)phenyl)-4-oxo-8-oxa-1,3-diazaspiro[4.5]dec-1-en-3-yl)methyl)azetidine-1-carboxylate]
11 | > 10 | CS(=O)(=O)N1CC(CN2C(=O)C3(CCOC3)N=C2c2ccc(-c3ccc4cccnc4c3)cc2)C1 (stereo not shown) [compound 942, 3-((1-(methylsulfonyl)azetidin-3-yl)methyl)-2-(4-(quinolin7-yl)phenyl)-7-oxa-1,3-diazaspiro[4.4]non-1-en-4-one]
5 | > 10 | Cn1ncc2cc(-c3ccc(C4=NC5(CCOC5)C(=O)N4CC4CN(S(C)(=O)=O)C4)cc3)ccc21 (stereo not shown) [compound 944, 2-(4-(1-methyl-1H-indazol-5-yl)phenyl)-3-((1-(methylsulfonyl)azetidin-3-yl)methyl)-7-oxa-1,3-diazaspiro[4.4]non-1-en-4-one]
38 | > 10 | Cn1ncc2cc(-c3ccc(C4=NC5(CCOC5)C(=O)N4CC4CN(C(=O)N5CCCC5)C4)cc3)ccc21 (stereo not shown) [compound 945, 2-(4-(1-methyl-1H-indazol-5-yl)phenyl)-3-((1-(pyrrolidine-1-carbonyl)azetidin-3-yl)methyl)-7-oxa-1,3-diazaspiro[4.4]non-1-en-4-one]
37 | > 10 | COC(=O)N1CC2(C1)N=C(c1ccc(-c3ccc4occc4c3)cc1)N(C[C@@H]1CCN(C(=O)C(F)(F)F)C1)C2=O [compound 946, (R)-methyl 6-(4-(benzofuran-5-yl)phenyl)-8-oxo-7-((1-(2,2,2-trifluoroacetyl)pyrrolidin-3-yl)methyl)-2,5,7-triazaspiro[3.4]oct-5-ene-2-carboxylate]
-14 | > 10 | O=C(c1nccs1)N1CC(CN2C(=O)C3(CCOCC3)N=C2c2ccc(-c3ccc4cccnc4c3)cc2)C1 [compound 947, 2-(4-(quinolin-7-yl)phenyl)-3-((1-(thiazole-2-carbonyl)azetidin-3-yl)methyl)-8-oxa-1,3-diazaspiro[4.5]dec-1-ene-4-one]
25 | > 10 | Cn1cc(-c2ccc(-c3ccc(C4=NC5(CCOCC5)C(=O)N4C[C@@H]4CCN(C(=O)c5nccs5)C4)cc3)cc2)cn1 [compound 948, (R)-2-(4′-(1-methyl-1H-pyrazol-4-yl)-[1,1′-biphenyl]-4-yl)-3-((1-(thiazole-2-carbonyl)pyrrolidin-3-yl)methyl)-8-oxa-1,3-diazaspiro[4.5]dec-1-en-4-one]
-4 | > 10 | O=C(c1nccs1)N1CC(CN2C(=O)C3(CCOCC3)N=C2c2ccc(-c3ccc4occc4c3)cc2)C1 [compound 949, 2-(4-(benzofuran-5-yl)phenyl)-3-((1-(thiazole-2-carbonyl)azetidin-3-yl)methyl)-8-oxa-1,3-diazaspiro[4.5]dec-1-en-4-one]
-1.27 | > 10 | Cn1cc(-c2ccc(-c3ccc(C4=NC5(CCOC5)C(=O)N4CC4CN(S(C)(=O)=O)C4)cc3)cc2)cn1 (stereo not shown) [compound 950, 2-(4′-(1-methyl-1H-pyrazol-4-yl)-[1,1′-biphenyl]-4-yl)-3-((1-(methylsulfonyl)azetidin-3-yl)methyl)-7-oxa-1,3-diazaspiro[4.4]non-1-en-4-one]
41 | > 10 | CC(C)N1CCC2(CC1)N=C(c1ccc(-c3ccc4cnccc4c3)cc1)N(CC1CN(C(=O)C3CC3)C1)C2=O [compound 951, 3-((1-(cyclopropanecarbonyl)azetidin-3-yl)methyl)-8-isopropyl-2-(4-(isoquinolin-6-yl)phenyl)-1,3,8-triazaspiro[4.5]dec-1-en-4-one]
45 | > 10 | O=C(C1CC1)N1CC(CN2C(=O)C3(CCN(C(=O)C(F)(F)F)CC3)N=C2c2ccc(-c3ccc4c(ccn4C(=O)C(F)(F)F)c3)cc2)C1 [compound 952, 3-((1-(cyclopropanecarbonyl)azetidin-3-yl)methyl)-8-(2,2,2-trifluoroacetyl)-2-(4-(1-(2,2,2-trifluoroacetyl)-1H-indol-5-yl)phenyl)-1,3,8-triazaspiro[4.5]dec-1-en-4-one]
35 | > 10 | COC(=O)N1CC[C@@H](CN2C(=O)C3(CCOCC3)N=C2c2ccc(-c3ccc4c(cnn4C)c3)cc2)C1 [compound 953, (S)-methyl 3-((2-(4-(1-methyl-1H-indazol-5-yl)phenyl)-4-oxo-8-oxa-1,3-diazaspiro[4.5]dec-1-en-3-yl)methyl)pyrrolidine-1-carboxylate]
27 | > 10 | COC(=O)N1CC[C@@H](CN2C(=O)C3(CCOC3)N=C2c2ccc(-c3ccc4occc4c3)cc2)C1 (stereo partly drawn) [compound 954, (3S)-methyl 3-((2-(4-(benzofuran-5-yl)phenyl)-4-oxo-7-oxa-1,3-diazaspiro[4.4]non-1-en-3-yl)methyl)pyrrolidine-1-carboxylate]
34 | > 10 | Cn1ncc2cc(-c3ccc(C4=NC5(CCOC5)C(=O)N4C[C@@H]4CCN(C(=O)C(F)(F)F)C4)cc3)ccc21 (stereo partly drawn) [compound 955, 2-(4-(1-methyl-1H-indazol-5-yl)phenyl)-3-(((R)-1-(2,2,2-trifluoroacetyl)pyrrolidin-3-yl)methyl)-7-oxa-1,3-diazaspiro[4.4]non-1-en-4-one]
